From patent publication US20100247503A1, “METHOD FOR OBTAINING A SOLID COMPOSITION WITH RHODOTORULA MINUTA, WHICH IS EFFECTIVE FOR THE BIOLOGICAL CONTROL OF ANTHRACNOSE, AND RESULTING COMPOSITION” (priority 2006, published 2010)

Columns and labels:
Type in all cases: in vivo
[1] = system: Colletotrichum gloeosporioides; assay: Field tests with liquid compositions, pre-harvest application, severity of anthracnose on mango fruit; details: mango cv. Kent, five monthly pre-harvest sprays, fruit stored 15 days at 20° C., 85% RH, R. minuta 10^8, B. subtilis 10^6, mix 10^6+10^4 UFC/mL, Benomyl 0.5 g/L
Description: (§1) Application of treatments in the field. To verify field effectiveness we used an eight-year old commercial mango orchard cv. Kent, located in El Rosario, Sinaloa, Mexico. We selected the trees homogeneously to distribute them for each treatment (three trees per treatment). In each treatment there was a monthly application (five in total), using a backpack pump sprinkler operated at 400 pounds of pressure. We started during flowering (February) until the harvest (June or July), spraying suspensions of fresh or dried cells (previously hydrated), produced in semi-industrial fermenters. We sprayed 7 L of cell suspension on each selected mango tree, until all the foliage was wet. As a control treatment, we sprayed 7 L of irrigation water.
(§2) Quantifying the severity of anthracnose. For each treatment, 100 mango fruits were harvested at physiological maturity (Báez et al., 1993), and were stored under simulated marketing conditions at 20° C. and 85% relative humidity. We evaluated the severity of the disease after a minimum of 15 days of storage, using the presence of symptoms as indicator of the disease (anthracnose) in the fruit. […]
(§3) Statistical analysis. The study of the severity of the disease in mango fruits was analyzed using a completely randomized block design. […] The difference between treatments was determined by the Tukey test (p=0.05). […]

[2] = system: Colletotrichum gloeosporioides; assay: Field tests with solid dry compositions, pre-harvest application, severity of anthracnose on mango fruit; details: mango cv. Kent, mix 10^6+10^4 UFC/mL, Benomyl 0.5 g/L
Description: as §1, §2, §3

[3] = system: mango fruit (Mangifera indica) cv. Kent; assay: Assessing the quality of the fruit (weight loss, pH, titratable acidity, total soluble solids) during storage; details: 85% RH
Experimental: Assessing the quality of the fruit. Weight loss was assessed every third day by difference in weight with respect to the initial weight of the fruit, expressed as a percentage (Diaz-Pérez, 1998). The pH, titratable acidity (TA) and total soluble solids (TSS) were quantified according to the methodology proposed by the AOAC (1998) at 0, 6 and 12 days of storage. To determine the pH and acidity we used a Mettler automatic titrator (model DL-21) and the results were expressed in units of pH and percentage of citric acid, respectively. Total soluble solids were determined with a Leica Abbe Mark II type refractometer, temperature-compensated and previously calibrated with pure water. The results were expressed in Brix degrees (°Brix). For quality parameters, a fruit was selected as an experimental unit and five replications were used.
Statistical analysis. The study of the severity of the disease in mango fruits was analyzed using a completely randomized block design. Data from the evaluations of each treatment were subjected to unilateral variance analysis by Friedman ranges (p<0.05) using the SAS statistical system (SAS, 1998). The difference between treatments was determined by the Tukey test (p=0.05). For differences in the analysis of variance (ANOVA) of quality variables, the mediums were separated by Tukey multiple comparison test with a probability of error of 5%, using the Minitab statistical program version 13.1.
The same compositions presented in table 2 were used to study the effect of the application of biological control agents, subject of this invention, on the quality of mango fruit cv. Kent.

Structure (SMILES): CCCCNC(=O)n1c(NC(=O)OC)nc2ccccc21 [Benomyl]
- % of severity after 15 days of storage [1]: 41.7 b %
- % of severity after 15 days of storage ([1]; listed as chemical treatment): 41.7%
- % severity [2]: 25.0 b %
- % severity ([2]; listed as chemical treatment): 36.2%
- Weight loss (%) ([3]; day 3 of storage at 20° C.): 0.9 a %
- Weight loss (%) ([3]; day 6 of storage at 20° C.): 1.6 a %
- Weight loss (%) ([3]; day 9 of storage at 20° C.): 2.4 ab %
- Weight loss (%) ([3]; day 12 of storage at 20° C.): 3.4 ab %
- Weight loss (%) ([3]; day 15 of storage at 20° C.): 4.3 a %
- Weight loss (%) ([3]; day 15 of storage at 20° C., listed as chemical treatment): 4.3%
